# Results from US20100179205A1, “Composition for Enhanced Antiparasitic Activity” (Intervet International B.V., priority 2006, published 2010).
# System: Rhipicephalus sanguineus nymphs
# Assay: Efficacy against Rhipicephalus sanguineus on infested guinea pigs, topical bath treatment
# Type: in vivo
# Settings: for average number of detached ticks per animal (detachment effect): bath treatment, 24 hours after treatment, guinea pigs infested with 100 nymphs; for overall acaricidal efficacy against R. sanguineus-nymphs: compared to the control group; for average number of engorged ticks per animal: engorged ticks dropping from d4 to d8; for average number of dead ticks after detachment: mortality assessed 24 hours after detachment
# Experimental: Efficacy against Rhipicephalus sanguineus
# Guinea pigs were infested with 100 nymphs of Rhipicephalus sanguineus (d0). Guinea pigs (n=3) were treated topically (bath treatment) with atipamezol (7.8 ppm), amitraz (2.0 ppm; 3.9 ppm) and two combinations of both (7.8 ppm atipamezol+2.0 ppm amitraz; 7.8 ppm atipamezol+3.9 ppm amitraz), respectively (d1). The control group remained untreated.
# The number of detached ticks was assessed 1, 3, 6 and 24 hours after treatment (detachment effect).
# The mortality of detached ticks was assessed 24 hours after detachment.
# The average number of engorged ticks dropping per animal from d4 to d8 was assessed to determine the overall acaricidal efficacy compared to the control group.
SMILES,average number of detached ticks per animal (detachment effect) (2.0 ppm amitraz),overall acaricidal efficacy against R. sanguineus-nymphs (2.0 ppm amitraz),average number of engorged ticks per animal (2.0 ppm amitraz),average number of dead ticks after detachment (2.0 ppm amitraz),average number of detached ticks per animal (detachment effect) (3.9 ppm amitraz),overall acaricidal efficacy against R. sanguineus-nymphs (3.9 ppm amitraz),average number of engorged ticks per animal (3.9 ppm amitraz),average number of dead ticks after detachment (3.9 ppm amitraz),average number of detached ticks per animal (detachment effect) (7.8 ppm atipamezol),overall acaricidal efficacy against R. sanguineus-nymphs (7.8 ppm atipamezol),average number of engorged ticks per animal (7.8 ppm atipamezol),average number of dead ticks after detachment (7.8 ppm atipamezol),acaricidal/insecticidal effect (in words) (atipamezole alone)
"Cc1ccc(N=CN(C)C=Nc2ccc(C)cc2C)c(C)c1 [amitraz, 1,5-di-(2,4-dimethylphenyl)-3-methyl-1,3,5-triazapenta-1,4-diene]",29.7,84%,8.7,24.3,43.7,100%,0,39.7,–,–,–,–,–
"CCC1(c2cnc[nH]2)Cc2ccccc2C1 [atipamezol, 4(5)-(2,3-dihydro-2-ethyl-1H-inden-2-yl)imidazole]",–,–,–,–,–,–,–,–,2.0,63%,20.7,1.3,does not show an acaricidal/insecticidal effect
